Consider 15 compounds from PMC6832960, “The Fragment-Based Development of a Benzofuran Hit as a New Class of Escherichia coli DsbA Inhibitors” (Molecules, 2019).

One data set concerns the target T1, 15N-labelled EcDsbA (Escherichia coli, UniProt P0AEG4).
T1 construct: made in house; protein recovered from the periplasm of the expressing cells
Nature of the data set: 2D 1H-15N HSQC chemical shift perturbation / titration. Type of data set: binding. The conditions noted are these: for Ligand Efficiency: LE = −RTln(KD)/HAC, 298 K; for fold decrease in binding affinity: relative to 25. On the procedure:
Compounds that passed at least one ligand-detected NMR experiment were further validated by 2D ^1H-^15N heteronuclear single quantum coherence (HSQC) spectroscopy. In HSQC experiments, chemical shift perturbations (CSP) of backbone amide resonances of ^15N-labelled EcDsbA were measured upon addition of compound at 1 mM. […] In accordance with the crystal structure, the majority of the residues perturbed by 1 mM of benzofuran analogues in single-point HSQCs are located around the hydrophobic groove which is an important binding site for DsbA substrates (Figure 2A). […] Eight compounds produced large enough CSP (>0.04 ppm) to enable HSQC titration and KD determination.
For the 2D ^1H-^15N-HSQC titration experiment, 100 µM of ^15N-labelled EcDsbA in a buffer of 50 mM HEPES, pH 6.8, 50 mM NaCl, 2% ^2H6-DMSO, and 10% ^2H2O, was titrated with increasing concentrations of compounds ([…], 0.125, 0.25, 0.5, and 1 mM). Data were acquired on a Bruker 600 MHz spectrometer equipped with a 5 mm TXI CryoProbe and a Bruker 700 MHz spectrometer equipped with a 5 mm TXI CryoProbe. Data was processed by Topspin3.5 (Bruker) and analysed by Sparky (T. D. Goddard and D. G. Kneller, SPARKY 3, University of California, San Francisco (UCSF)). Weighted chemical shift perturbations (CSP) that were observed upon addition of compounds to EcDsbA were calculated using an Equation (1) in [41]: (1) CSP=ΔδH^2+(0.2×ΔδN)^2 where ΔδH and ΔδN denote the change in chemical shift of amide proton and nitrogen resonances upon addition of the compound. Equilibrium dissociation constants (KD) were determined by fitting the plot of CSP against compound concentrations using one site with ligand depletion model (Equation (2)): (2) CSP=CSPmax×[(KD+Pt+Lt)−((KD+Pt+Lt)^2−4×Pt×Lt)]/2×Pt where CSP is the measured CSP at a given concentration, CSPmax is the CSP observed at the saturating concentration of compound, and Pt and Lt are the total protein and compound concentrations. The ligand efficiency (LE) is calculated using the Equation (3) in [42]: (3) LE=−ΔG/HAC=−RTln(KD)/HAC where R is gas constant (1.9858775 cal K^−1 mol^−1), T is temperature (298 K), KD is equilibrium dissociation constant, and HAC is the number of heavy (non-hydrogen) atoms.

For data set [1], the target named is T2, EcDsbA (Escherichia coli, UniProt P0AEG4).
T2 construct: made in house; protein recovered from the periplasm of the expressing cells
Briefly: Compound soaking into EcDsbA crystals and X-ray diffraction. Type of data set: binding. To be noted: crystals soaked with compound at 10 mM (5% DMSO) for 3–6 h. From the text:
The synthesised analogues were soaked into crystals of EcDsbA and X-ray diffraction data was collected for each analogue in order to determine their site of binding. […] The carboxy moiety of 15 was oriented towards the left-hand side of the binding groove, where more polar residues are located. The phenyl ring of the aniline moiety occupied the hydrophobic end of the binding pocket with the nitrogen atom of the amine linker positioned in close proximity to Gln35. […] Although anisidine 16 was occupying a larger region of the EcDsbA binding groove, the shift appeared to have interrupted the π-stacking interactions the benzofuran was making with the His32 side chain previously (Figure 1B and Figure S1).
EcDsbA was crystallised as previously described. Briefly, 1 µL of 30 mg/mL EcDsbA was mixed with an equal volume of crystallisation buffer (11–13% PEG8000, 5–7.5% glycerol, 1 mM CuCl2, 100 mM, sodium cacodylate pH 6.1) and equilibrated against 500 µL of reservoir buffer at 20 °C using hanging drop vapour diffusion. For compound soaking, crystals were transferred into 2 µL drops of 24% PEG8000, 22% glycerol, and 100 mM sodium cacodylate (pH 6.1) containing a compound of interest at the final concentration of 10 mM (5% DMSO) and were incubated for 3–6 h. Crystals were mounted on loops and flash-cooled in liquid nitrogen.
Datasets were collected at the Australian synchrotron on MX1 and MX2 beamlines using the Blue-Ice software (Irvine, CA, USA). MX1 beamline was equipped with an ADSC Quantum 210r detector and MX2 with an ADSC Quantum 315r detector. All datasets were indexed and integrated with iMOSFLM [32] or XDS [33]—and scaled using AIMLESS [34, 35] or SCALA [36]. Phasing was performed by molecular replacement with Phaser using the previously solved structure of EcDsbA as a search model (PDB code 1FVK). The final structure was obtained after several rounds of manual model building using Coot and refinement in phenix.refine. Structures, factors and coordinates have been deposited in the Protein Data Bank (PDB; http://www.pdb.org) under the accession codes of 6PMF, 6POQ, 6POH, 6PML, 6PVY, 6POI, and 6PVZ.

Data set [2] deals with T2, EcDsbA. Nature of the data set: waterLOGSY ligand-detected NMR binding. To be noted: compound 500 µM, unlabelled EcDsbA 10 µM, 298 K. An excerpt: (§1) To validate the binding of benzofuran analogues, three ligand-detected NMR methods, saturation-transfer difference (STD), Carr–Purcell–Meiboom–Gill (CPMG), and water–ligand observed via gradient spectroscopy (waterLOGSY), were employed to detect protein-ligand binding between the benzofurans and EcDsbA (Figure 2C). These experiments were designed as a primary screening tool to select analogues to undergo further affinity evaluation and prioritise compounds for crystal soaking. […] In a good agreement with this finding, eight out of nine benzofurans that passed all three ligand-detected experiments have their co-crystal structures successfully solved; in contrast, five compounds that failed two ligand-detected experiments only have one co-structure solved (Table 2).
(§2) For ligand-detected NMR spectroscopy, two samples (compound alone and compound + protein) were prepared for each compound. Unlabelled EcDsbA was prepared at 10 µM in a buffer of 50 mM sodium phosphate, pH 6.8, 25 mM NaCl, 100 µM 4,4-dimethyl 4-silapentane-1-sulfonic acid (DSS), and 10% ^2H2O. Compound was added to the protein sample to achieve final concentration of 500 µM (2% ^2H6-DMSO). ^1H 1D spectrum was acquired for each compound at 500 µM as a reference spectrum. All ligand-detected NMR experiments (STD, CPMG, and waterLOGSY) were acquired at 298 K on a Bruker Avance III 600 MHz NMR spectrometer equipped with a 5 mm TXI CryoProbe (Bruker, Billerica, MA, USA). STD spectra were acquired with 3 s of saturation at 1 ppm (on-resonance) and 33.3 ppm (off-resonance). WaterLOGSY spectra were acquired for compound alone and compound + protein with a 0.52 s acquisition time, 3 s relaxation delay, and 3 s Nuclear Overhauser effect (NOE) mixing time. CPMG spectra for compound alone and compound + protein were acquired with a constant spin echo delay of 1 ms and spin-lock period of 350 ms. The data was analysed using Topspin3.5 (Bruker) and DSS was used to reference the spectra.

For data set [3], the target named is T2, EcDsbA. Briefly: STD ligand-detected NMR binding. To be noted: compound 500 µM, unlabelled EcDsbA 10 µM, 298 K.
Description: as §1, §2

Data set [4] addresses T2, EcDsbA. Briefly: CPMG ligand-detected NMR binding. The conditions noted are these: compound 500 µM, unlabelled EcDsbA 10 µM, 298 K, spin-lock 350 ms.
Description: as §1, §2

T2 sequence (P0AEG4 20-208): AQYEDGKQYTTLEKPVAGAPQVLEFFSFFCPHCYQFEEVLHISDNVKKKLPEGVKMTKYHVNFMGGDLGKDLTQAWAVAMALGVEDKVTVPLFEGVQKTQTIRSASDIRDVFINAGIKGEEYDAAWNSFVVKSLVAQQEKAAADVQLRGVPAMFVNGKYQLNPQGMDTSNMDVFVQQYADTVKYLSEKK
T1 sequence (P0AEG4 20-208): as above

The term melting point denotes the temperature, or range, at which the solid turns liquid. Consider `O=C(O)C(NS(=O)(=O)c1ccccc1)c1coc2cc(Br)ccc12` (stereo not shown), for which the melting point lay within 179 to 182 °C.

`O=C(O)Cc1coc2cc(Br)ccc12` [compound 6, 2-(6-Bromobenzofufran-3-yl)acetic acid]: the “affinity to EcDsbA” value on 15N-labelled EcDsbA (fragment hit from biophysical screening) is reported as “high mM affinity”.

As usually defined, the Kd is the equilibrium constant for the complex coming apart. Turning to `COc1ccc(Nc2ccc3c(CC(=O)O)coc3c2)cc1` [compound 16, 2-(6-((4-Methoxyphenyl)amino)benzofuran-3-yl)acetic acid], the melting point lay in the range of 120 to 122 °C. The “Crystal Structure in EcDsbA” value on EcDsbA [1] is on record as “Yes”. Moreover, at EcDsbA [2], the wLOGSY result is “Pass”. Besides, on 15N-labelled EcDsbA, the Kd stood at 2700 ± 920 µM and the “Ligand Efficiency” value worked out at 0.16 kcal mol^−1 HAC^−1. For the same compound, the STD entry at EcDsbA [3] is listed as “Fail”. In addition, the CPMG entry at EcDsbA [4] is listed as “Pass”.

For `CCCCOc1ccc2c(CC(=O)O)coc2c1` [compound 21, 2-(6-Butoxybenzofuran-3-yl)acetic acid], the melting point is 108 to 109 °C. Also, the “Crystal Structure in EcDsbA” value on EcDsbA [1] was “Yes”. Further, the wLOGSY result on EcDsbA [2] is “Pass”. Further, on 15N-labelled EcDsbA, the Kd was 1970 ± 640 µM, the “Ligand Efficiency” value is on record as 0.20 kcal mol^−1 HAC^−1 and the “fold decrease in binding affinity” value is recorded as “six-fold decrease”. The STD result at EcDsbA [3] was “Pass”. The CPMG result on EcDsbA [4] is given as “Pass”.

As to `CC(C)COc1ccc2c(CC(=O)O)coc2c1` [compound 22, 2-(6-Isobutoxybenzofuran-3-yl)acetic acid], the “Crystal Structure in EcDsbA” value on EcDsbA [1] is recorded as “Yes”. Also, the wLOGSY result on EcDsbA [2] is “Fail”. At 15N-labelled EcDsbA (single-point HSQC, compound at 1 mM), the “chemical shift perturbations (CSP) of hydrophobic groove residues” value is recorded as “too small to determine KD”. The STD entry on EcDsbA [3] was “Fail”. In addition, the CPMG result on EcDsbA [4] was “Pass”.

Consider `O=C(O)Cc1coc2cc(OCc3ccccc3)ccc12` [compound 23], for which the melting point fell in the range of 153 to 155 °C. In addition, the “Crystal Structure in EcDsbA” value on EcDsbA [1] is recorded as “Yes”. Further, on EcDsbA [2], the wLOGSY result is given as “Pass”. Besides, on 15N-labelled EcDsbA, the Kd was determined as 820 ± 140 µM and the “Ligand Efficiency” value is recorded as 0.20 kcal mol^−1 HAC^−1. In addition, the STD result on EcDsbA [3] is listed as “Pass”. Moreover, the CPMG result on EcDsbA [4] is recorded as “Pass”.

`O=C(O)Cc1coc2ccc(OCc3ccccc3)cc12` [compound 24, 2-(5-(Benzyloxy)benzofuran-3-yl)acetic acid] returned a melting point of 147 to 149 °C. Besides, the “Crystal Structure in EcDsbA” value on EcDsbA [1] is listed as “did not show clear enough electron density”.

As for `O=C(O)Cc1coc2cc(Oc3ccccc3)ccc12` [compound 25, 2-(6-Phenoxybenzofuran-3-yl)acetic acid], the “Crystal Structure in EcDsbA” value on EcDsbA [1] is reported as “Yes”. Also, on EcDsbA [2], the wLOGSY entry is recorded as “Pass”. In addition, on 15N-labelled EcDsbA, the Kd was 326 ± 25 µM and the “Ligand Efficiency” value is 0.24 kcal mol^−1 HAC^−1. In addition, the STD entry at EcDsbA [3] is “Pass”. For the same compound, the CPMG entry on EcDsbA [4] is on record as “Pass”.

Consider `COc1cccc(Oc2ccc3c(CC(=O)O)coc3c2)c1` [compound 26, 2-(6-(3-Methoxyphenoxy)benzofuran-3-yl)acetic acid], for which the wLOGSY entry at EcDsbA [2] is “Pass”. Also, on 15N-labelled EcDsbA, the Kd is 639 ± 87 µM, the “Ligand Efficiency” value is 0.20 kcal mol^−1 HAC^−1 and the “fold decrease in binding affinity” value came out at 2 fold. Besides, the STD result on EcDsbA [3] is “Pass”. For the same compound, on EcDsbA [4], the CPMG entry is on record as “Pass”.

Take `Brc1ccc2c(Cc3nnn[nH]3)coc2c1` [compound 31, 5-((6-Bromobenzofuran-3-yl)methyl)-1H-tetrazole]: the “Crystal Structure in EcDsbA” value on EcDsbA [1] is “did not produce electron density and No”. For the same compound, the wLOGSY result at EcDsbA [2] is “Pass”. For the same compound, the STD entry on EcDsbA [3] is “Pass”. Further, the CPMG result on EcDsbA [4] is “Pass”.

For the compound `O=C(O)Cc1c[nH]c2cc(Br)ccc12` [compound 34, 2-(6-Bromo-1H-indol-3-yl)acetic acid], the “Crystal Structure in EcDsbA” value on EcDsbA [1] was “lack of electron density”.

Turning to `O=C(O)Cc1c[nH]c2cc(-c3ccccc3)ccc12` [compound 36, 2-(6-Phenyl-1H-indol-3-yl)acetic acid], the “Crystal Structure in EcDsbA” value at EcDsbA [1] was “lack of electron density and No”. On EcDsbA [2], the wLOGSY entry was “Pass”. The STD entry at EcDsbA [3] is reported as “Pass”. In addition, on EcDsbA [4], the CPMG result was “Pass”.

`CC(=O)NC(C(=O)O)c1coc2cc(Br)ccc12` (stereo not shown) [compound 46, 2-Acetamido-2-(6-bromobenzofuran-3-yl)acetic acid]: the melting point is 194 to 196 °C. Further, the “Crystal Structure in EcDsbA” value at EcDsbA [1] was “No”. Moreover, the wLOGSY entry on EcDsbA [2] is reported as “Pass”. Besides, the STD entry on EcDsbA [3] is on record as “Fail”. Moreover, on EcDsbA [4], the CPMG entry is “Fail”.

Compound `O=C(NC(C(=O)O)c1coc2cc(Br)ccc12)c1ccccc1` (stereo not shown) [compound 47, 2-Benzamido-2-(6-bromobenzofuran-3-yl)-2-acetic acid] had a melting point of 209 to 212 °C. On EcDsbA [1], the “Crystal Structure in EcDsbA” value is “No”. The wLOGSY result on EcDsbA [2] was “Pass”. The STD entry on EcDsbA [3] is on record as “Fail”. Also, the CPMG result on EcDsbA [4] was “Fail”.

Consider `CS(=O)(=O)NC(C(=O)O)c1coc2cc(Br)ccc12` (stereo not shown) [compound 50, 2-(6-Bromobenzofuran-3-yl)-2-(methylsulfonamido)acetic acid], for which the melting point is 140 to 142 °C. For the same compound, at EcDsbA [1], the “Crystal Structure in EcDsbA” value is “Yes”. Further, at EcDsbA [2], the wLOGSY entry was “Pass”. Further, the STD result on EcDsbA [3] is reported as “Pass”. At EcDsbA [4], the CPMG result was “Pass”.
